From US20100247659A1, “PHENYLPHTHALIMIDE ANALOGS FOR TREATING DIABETIC MACULAR EDEMA” (Charlesson, LLC, priority 2007, published 2010)

Columns and labels:
HUVEC [1] = assay: MTT cell proliferation assay, HUVEC; assay type: cell-based; settings: Homo sapiens, 72 h, treated 3 days, read-out: IC50, inhibition of proliferation of HUVEC
Excerpt: (§1) Cell culture: All cell culture media and supplements were purchased from Cellgro unless otherwise indicated. Human Umbilical Vein Endothelial Cells (HUVEC) were obtained from American Type Culture Collection and grown in the EBM-MV2 medium (Clonetics). Bovine Retinal Endothelial Cells (BREC) and pericytes were isolated according to a modified method as described previously (Wong, et al. Investig. Opthalmol. Vis. Sci. 1987, 28: 1767-1775). Twelve bovine eyes were obtained from a local slaughterhouse (Country Home Meats). The retinas were removed and washed four times in DMEM. Subsequently retinas were homogenized and centrifuged at 400×g for 10 min. The resultant pellet was resuspended in an isolation medium (DMEM with 100 IU/ml penicillin, 100 μg/ml streptomycin and 250 ng/ml amphotericin). Microvessels were trapped on an 85 μm nylon mesh (Locker Wire Weavers LTD) and transferred to a petri dish (Falcon) containing 10 ml of an enzyme cocktail which consisted of 600 μg/ml DNase I (Sigma), 165 μg/ml collagenase (Sigma) and 700 μg/ml Pronase E (EMD) and were incubated at 37° C. for 20 min. The resultant vessel fragments were trapped on a 53 μm nylon mesh (Locker Wire Weavers LTD), washed with the isolation medium and centrifuged at 400×g for 5 min. For selective culture of pericytes, the resultant pellet was resuspended in 10 ml of the pericyte growth medium and transferred into 75-cm^2 plastic tissue culture flasks (BD Biosciences). For selective culture of BRCECs, the resultant pellet was resuspended in 10 ml of the BRCEC growth medium and transferred into 75-cm^2 collagen-coated plastic tissue culture flasks (BD Biosciences). The BRCEC growth medium consisted of DMEM supplemented with 10% human serum, 1% glutamine, 1 mg/ml insulin, 550 μg/ml transferring, 670 ng/ml selenium, 100 IU/ml penicillin, 100 μg/ml streptomycin, 250 ng/ml amphotericin, 90 μg/ml heparin (Sigma) and 15 μg/ml endothelial cell growth supplement (Upstate). Cells were cultured at 37° C. and 5% CO2 with regular medium change every 3 days. Confluence cultures were passaged by detaching the cells with 0.25% trypsin and plated at a split 1:3. […] At passage 2, BRCECs and pericytes were stored in a liquid nitrogen tank for future use.
MTT assay: Cells were seeded at a density of 5×10^4 cells per well in 400 μl of growth medium in triplicate in 24-well plates (Nalge Nunc) or gelatin-coated 24-well plates. Twenty-four hours after seeding, the growth medium was replaced by a medium containing 1% FBS, with or without different concentrations of thalidomide or phenylphthalimide analogs. After the cells were treated for 48-72 h, MTT was added to a final concentration of 0.5 mg of medium per ml and incubated for 4 h at 37° C. in 5% CO2. An equal volume of solubilizer buffer is then added, following the protocol recommended by the manufacturer (Roche Molecular Biochemicals), the cells will be incubated overnight at 37° C. in 5% CO2. The absorbance of the formazen product was measured at a wavelength of 570 nm, with 750 nm as the (subtracted) reference wavelength.
Primary endothelial cells (HUVEC and BRCEC) and pericytes were treated with various concentrations of the compounds for 3 days. Viable cells were quantified using MTT assay and IC50 of each compound was calculated (mean±SD, n=3, FIG. 1). The IC50 values represent the means and SE of 3 independent experiments.

BRCEC = assay: MTT cell proliferation assay, BRCEC; assay type: cell-based, bovine; settings: Bos taurus, 72 h, treated 3 days, read-out: IC50, inhibition of proliferation of BRCEC
Excerpt: as §1
MTT assay: Cells were seeded at a density of 5×10^4 cells per well in 400 μl of growth medium in triplicate in 24-well plates (Nalge Nunc) or gelatin-coated 24-well plates. […] The absorbance of the formazen product was measured at a wavelength of 570 nm, with 750 nm as the (subtracted) reference wavelength.
Primary endothelial cells (HUVEC and BRCEC) and pericytes were treated with various concentrations of the compounds for 3 days. Viable cells were quantified using MTT assay and IC50 of each compound was calculated (mean±SD, n=3, FIG. 1). […]

HUVEC [2] = assay: Endothelial cell migration (invasion) assay; assay type: cell-based; settings: Homo sapiens, VEGF 4 ng/ml, invasion through Matrigel, read-out: IC50, inhibition of HUVEC migration
Protocol: Cells were allowed to invade for 22±1 hours. Cells were labeled post invasion with Calcein AM (4 μg/ml) and measured by detecting the fluorescence of cells that invaded through the BD Matrigel™ Matrix with an Applied Biosystems CytoFluor® 4000 plate reader at 485 nm excitation and 530 nm emission.
In this assay system, human endothelial cells are allowed to invade and are then labeled with fluorescent dye Calcein AM before quantification on a fluorometer.
In FIG. 2B, cells were seeded at 5×10^4/insert in EBM-2 containing 0.1% BSA in multi-well inserts. The assembled assays were allowed to proceed for 6 hours. The results are expressed as percent inhibition of migration as compared to control (no inhibitor). Data represents the average of 3 experiments, each run in triplicate. The bars represent mean±SD.

STZ-diabetic rats = assay: Retinal vascular leakage in STZ-diabetic rats, intravitreal injection; assay type: in vivo, rat; settings: single intravitreal 1.0 μg/eye (5 μl 0.8 mM), 48 h
Protocol: Induction of diabetes by streptozotocin (STZ): BN rats (8 weeks of age) were given a single intraperitoneal injection of fresh made streptozotocin (STZ) (Sigma, 50 mg/kg in 10 mM of citrate buffer, pH 4.5) following an overnight fasting. Control rats received an injection of citrate buffer alone. Blood glucose levels were checked at 24 hours following the last STZ injection and once a week thereafter, and only the animals with glucose levels higher than 350 mg/dl were considered diabetic. Rats with hyperglycemia for 2 weeks were used for these experiments.
Intravitreal injection of compounds: Thalidomide and the phenylphthalimide analogs Compounds 1, 2 and Compound 4 were dissolved in vehicle (BN rat serum) and sterilized by filtration. OIR and STZ-diabetic BN rats received an intravitreal injection of 0.5-2.0 μg/eye of (5 μl/eye, 0.1-0.4 mg/ml in BN rat serum) of thalidomide, Compounds 1, 2 or Compound 4 into the right eye and the equal volume of the BN rat serum into the left eye.
Evans blue dye (Sigma) was dissolved in 0.9% saline (30 mg/ml), sonicated for 5 min and filtered through a 0.45-μm filter (Millipore). The rats were then anesthetized, and Evans blue (30 mg/kg) was injected over 10 s through the femoral vein using a glass capillary under microscopic inspection. Evans blue non-covalently binds to plasma albumin in the blood stream. Immediately after Evans blue infusion, the rats turned visibly blue, confirming their uptake and distribution of the dye. The rats were kept on a warm pad for 2 h to ensure the complete circulation of the dye. Then the chest cavity was opened, and the rats were perfused via the left ventricle with 1% paraformaldehyde in citrate buffer (pH 4.2) which was pre-warmed to 37° C. to prevent vasoconstriction. The perfusion lasted 10 min under the physiological pressure of 120 mmHg, in order to clear the dye from the vessel. Immediately after perfusion, the eyes were enucleated and the retinas were carefully dissected under an operating microscope. Evans blue dye was extracted by incubating each sample in 150 μl of formamide for 18 h at 70° C. The extract was centrifuged (Beckman) at 70,000 rpm (Rotor type: TLA 100.3) for 20 min at 4° C. Absorbance was measured using 100 μl of the supernatant at 620 nm by using Spectrophotometer DU800 (Beckman). The concentration of Evans blue in the extract was calculated from a standard curve of Evans blue in formamide and normalized by the total protein concentration in each sample. Results were expressed in mg of Evans blue per mg of total protein content.
Diabetes was induced by injection of STZ (50 mg/kg, i.v.) into adult BN rats after overnight fasting. Blood glucose levels were monitored at the second day after the injection and once a week thereafter. Rats with glucose levels above 350 mg/dl were considered as diabetic and used for the study. thalidomide, Compounds 1, 2 and 4 were separately injected into the vitreous space (5 μl, 0.8 mM in BN rat serum) of the right eye of STZ-diabetic rats 2 wks after the induction of diabetes. At 48 h after the injection, retinal vascular leakage was measured using the Evans blue-albumin leakage method.
To determine the dose-response relationship of the effect of Compound 4 and thalidomide, the STZ-diabetic rats received an intravitreal injection of Compound 4 and thalidomide with doses of 0.5, 0.75 and 1.0 μg/eye (5 μl/eye of 0.10, 0.15 and 0.20 mg/ml), respectively.

[3] = test system: CAM blood vessel formation induced by VEGF/bFGF; assay: Chicken chorioallantoic membrane (CAM) assay; assay type: in vivo; settings: 200 ng VEGF-165/bFGF, 48 hr
Protocol: Chicken chorioallantoic membrane (CAM) assay: The fertile Leghorn chicken eggs were incubated in a humidified environment at 37.5° C. for 10 days. […] Anti-angiogenic compounds were then added 8 hr after the VEGF/bFGF at saturation to the same microbial testing disk, and the embryos were incubated for an additional 40 h. CAMs were then removed, quickly fixed with 4% paraformaldehyde in PBS, placed onto Petri dishes, and digitized images taken at 7.5× using a Nikon dissecting microscope and Scion Imaging system. A 1×1-cm grid was then added to the digital CAM images and the average number of vessels within 5-7 grids counted as a measure of vascularity.
CAM assay was used for in vivo anti-angiogenic studies. The fertile leghorn chicken eggs were allowed to incubate in a humidified environment at 37.5° C. for 10 days. […] Anti-angiogenic compounds were then added 8 hours after the VEGF/bFGF at saturation to the same microbial testing disk and embryos allowed to incubate for an additional 40 hours. After 48 hr, CAMs were removed, quickly fixed with 4% paraformaldehyde in PBS, placed onto Petri dishes, and digitized images taken at 7.5× using a Nikon dissecting microscope and Scion Imaging system. A 1×1-cm grid was then added to the digital CAM images and the average number of vessels within 5-7 grids counted as a measure of vascularity.
FIG. 14 is a table comparing the effect of Compound 4 on blood vessel formation. […] Data represent mean±SD of 8-16 samples from 2-3 separate experiments.

SMILES | IC50 (HUVEC [1]) [µM] | IC50 (BRCEC) [µM] | IC50 (HUVEC [2]) [µM] | reduction of retinal vascular leakage vs vehicle control (STZ-diabetic rats) [%] | ED50, dose reducing blood vessel number to 50% of VEGF/bFGF alone group [3] [μg/embryo]
Nc1cccc2c1C(=O)N(C1CCC(=O)NC1=O)C2=O (stereo not drawn) [Actimid] | > 100 | – | – | – | –
CC(C)c1cccc(C(C)C)c1N1C(=O)c2ccc(O)cc2C1=O [Compound 1] | 3.3 | 1.94 | 1 | 61 | –
CC(C)c1cccc(C(C)C)c1N1C(=O)c2ccccc2C1=O [Compound 2, (2,6-diisopropylphenyl)-1H-isoindole-1,3-dione] | 3 | 3.56 | – | – | –
Nc1cccc2c1CN(C1CCC(=O)NC1=O)C2=O (stereo not drawn) [Revimid] | > 100 | – | – | – | –
Cc1cc(C)c(/C=C2\C(=O)Nc3ccccc32)[nH]1 [SU5416] | – | – | – | – | 7.8
